# Experimental data as given in patent US20230111914A1, “SYNTHETIC TRITERPENOIDS WITH NITROGEN-BASED SUBSTITUENTS AT C-17 AND METHODS OF USE THEREOF” (REATA PHARMACEUTICALS, INC., priority 2019, published 2023).
# Where “and” joins values, the source holds several entries; their conditions need not be identical. Identical values can stand only once. Like-named read-outs stand apart in the source and are kept apart here. Marks after values point to notes of the source that are not given here.
# Tests used:
# [1] = system: IFNγ-induced NO production in RAW 264.7 cells; assay: Nitric oxide suppression assay (IFNγ-induced NO production, Griess nitrite readout); type: cell-based, mouse; settings: for IC50: Mus musculus
# [2] = system: AREc32 reporter cell line (luciferase reporter under eight copies of the rat GSTA2 ARE sequence); assay: AREc32 luciferase reporter activation; type: cell-based, human; settings: for EC (2-fold): Homo sapiens, read-out: AREc32 EC2X (Mean ± SD)
# [3] = RAW264.7, RAW 264.7 cells, 2 h pretreatment, 20 ng/mL interferon gamma 24 h, average of trials per footnote, read-out: NO IC50
# [4] = Arec32, concentration that increases the luminescence signal 2-fold above vehicle, 19 h treatment
SMILES,NO IC50 Rel. to RTA 402 [1],"IC50 [1, 3] [nM]",AREc32 EC2X Relative to RTA 402 (Mean ± SD) [2],"EC (2-fold) [2, 4] [µM]","AREc32 Relative to CC in Same Experiment (Mean ± SD) ([2]; comparison compound CC4, average of ratios from three replicate experiments)",times more active (NO IC50) than 63189 relative to RTA 402 [1],"IC50 ([1]; RAW264.7, read-out: NO IC50) [nM]","EC (2-fold) ([2]; Arec32, 19 h) [µM]"
Cc1cc(C)n(C[C@]23CCC(C)(C)C[C@H]2[C@H]2C(=O)C=C4[C@@]5(C)C=C(C#N)C(=O)C(C)(C)[C@@H]5CC[C@@]4(C)[C@]2(C)CC3)n1 [Compound T22],5.29 ± 1.29^d fold,9.18 ± 1.72,3.7^e fold,0.0445,–,–,–,–
CC1(C)CC[C@]2(CN3CC4(COC4)C3)CC[C@]3(C)[C@H](C(=O)C=C4[C@@]5(C)C=C(C#N)C(=O)C(C)(C)[C@@H]5CC[C@]43C)[C@@H]2C1 [Compound T23],2.01 ± 0.53^e fold,4.16 ± 1.19,1.9^e fold,0.0185,–,–,–,–
CC1(C)CC[C@]2(N3CCCC3=O)CC[C@]3(C)[C@H](C(=O)C=C4[C@@]5(C)C=C(C#N)C(=O)C(C)(C)[C@@H]5CC[C@]43C)[C@@H]2C1 [Compound T24],2.17 ± 0.72^e fold,3.6 ± 0.08,3.8^e fold,0.0379,–,–,–,–
CC1(C)CC[C@]2(CN3CCC3)CC[C@]3(C)[C@H](C(=O)C=C4[C@@]5(C)C=C(C#N)C(=O)C(C)(C)[C@@H]5CC[C@]43C)[C@@H]2C1 [Compound T25],1.21 ± 0.45^e fold,2.5 ± 0.92,1.5^e fold,0.022,–,–,–,–
CC1(C)CC[C@]2(CN3CC(F)C3)CC[C@]3(C)[C@H](C(=O)C=C4[C@@]5(C)C=C(C#N)C(=O)C(C)(C)[C@@H]5CC[C@]43C)[C@@H]2C1 [Compound T26],2.73 ± 1.01^e fold,5.61 ± 1.84,1.6^e fold,0.0236,–,–,–,–
CC1(C)CC[C@]2(CN3CC(F)(F)C3)CC[C@]3(C)[C@H](C(=O)C=C4[C@@]5(C)C=C(C#N)C(=O)C(C)(C)[C@@H]5CC[C@]43C)[C@@H]2C1 [Compound T27],8.68 ± 2.12^e fold,17.8 ± 1.79,1.8^e fold,0.0266,–,–,–,–
CC1(C)CC[C@]2(CN3CC(O)C3)CC[C@]3(C)[C@H](C(=O)C=C4[C@@]5(C)C=C(C#N)C(=O)C(C)(C)[C@@H]5CC[C@]43C)[C@@H]2C1 [Compound T28],1.09 ± 0.16^e fold,2.83 ± 0.92,0.9 ± 0.12^a fold,0.0139 ± 0.00157,–,–,–,–
CC1(C)CC[C@]2(CN3CC(=O)C3)CC[C@]3(C)[C@H](C(=O)C=C4[C@@]5(C)C=C(C#N)C(=O)C(C)(C)[C@@H]5CC[C@]43C)[C@@H]2C1 [Compound T29],1.49 ± 0.30^d fold,6.09 ± 1.46,1.2^e fold,0.0133,–,–,–,–
CN1CCN([C@]23CCC(C)(C)C[C@H]2[C@H]2C(=O)C=C4[C@@]5(C)C=C(C#N)C(=O)C(C)(C)[C@@H]5CC[C@@]4(C)[C@]2(C)CC3)C1=O [Compound T31],3.13 ± 0.36^d fold,12.6 ± 1.65,4.3^e fold,0.0455,–,–,–,–
CC1(C)CC[C@]2(n3cccn3)CC[C@]3(C)[C@H](C(=O)C=C4[C@@]5(C)C=C(C#N)C(=O)C(C)(C)[C@@H]5CC[C@]43C)[C@@H]2C1 [Compound T32],2.58 ± 0.60^e fold,4.89 ± 1.42,2.8 ± 0.62^f fold,0.0323 ± 0.00139,–,–,–,–
CC1(C)CC[C@]2(N3CCOC3=O)CC[C@]3(C)[C@H](C(=O)C=C4[C@@]5(C)C=C(C#N)C(=O)C(C)(C)[C@@H]5CC[C@]43C)[C@@H]2C1 [Compound T34],1.23 ± 0.23^e fold,2.23 ± 0.57,2.2^e fold,0.0236,–,–,–,–
CC1(C)CC[C@]2(N3CCC3=O)CC[C@]3(C)[C@H](C(=O)C=C4[C@@]5(C)C=C(C#N)C(=O)C(C)(C)[C@@H]5CC[C@]43C)[C@@H]2C1 [Compound T38],1.69 ± 0.84^e fold,4.32 ± 3.51,2.1^e fold,0.0361,–,–,–,–
CC1(C)CC[C@]2(n3cnnc3)CC[C@]3(C)[C@H](C(=O)C=C4[C@@]5(C)C=C(C#N)C(=O)C(C)(C)[C@@H]5CC[C@]43C)[C@@H]2C1 [Compound T39],42.82 ± 14.24^e fold,84.5 ± 18.9,9.8 ± 1.1^a fold,0.0943 ± 0.00426,–,–,–,–
CC1(C)CC[C@]2(n3ccoc3=O)CC[C@]3(C)[C@H](C(=O)C=C4[C@@]5(C)C=C(C#N)C(=O)C(C)(C)[C@@H]5CC[C@]43C)[C@@H]2C1 [Compound T40],1.37 ± 0.18^d fold,5.56 ± 0.72,1.8^e fold,0.0196,–,–,–,–
CC1(C)CC[C@]2(n3cc(CO)nn3)CC[C@]3(C)[C@H](C(=O)C=C4[C@@]5(C)C=C(C#N)C(=O)C(C)(C)[C@@H]5CC[C@]43C)[C@@H]2C1 [Compound T42],2.97 ± 0.47^d fold,12.4 ± 3.92,1.3 ± 0.34^f fold,0.0148 ± 0.00277,0.490 ± 0.057,–,–,–
Cn1ccn([C@]23CCC(C)(C)C[C@H]2[C@H]2C(=O)C=C4[C@@]5(C)C=C(C#N)C(=O)C(C)(C)[C@@H]5CC[C@@]4(C)[C@]2(C)CC3)c1=O [Compound T46],2.62 ± 0.10^d fold,10.7 ± 1.35,3.0^e fold,0.0316,–,–,–,–
CC1(C)CC[C@]2(CN3CCOC3)CC[C@]3(C)[C@H](C(=O)C=C4[C@@]5(C)C=C(C#N)C(=O)C(C)(C)[C@@H]5CC[C@]43C)[C@@H]2C1 [Compound T47],7.54 ± 2.47^d fold,17.3 ± 8.55,8.6^e fold,0.122,–,–,–,–
CC1(C)CC[C@]2(Cn3cnnc3)CC[C@]3(C)[C@H](C(=O)C=C4[C@@]5(C)C=C(C#N)C(=O)C(C)(C)[C@@H]5CC[C@]43C)[C@@H]2C1 [Compound T49],13.72 ± 3.47^e fold,26.9 ± 10.5,4.5^e fold,0.0389,–,–,–,–
CC1(C)CC[C@]2(CN3NCCC3=O)CC[C@]3(C)[C@H](C(=O)C=C4[C@@]5(C)C=C(C#N)C(=O)C(C)(C)[C@@H]5CC[C@]43C)[C@@H]2C1 [Compound T51],2.04 ± 0.73^d fold,8.55 ± 3.65,1.1^e fold,0.0117,–,–,–,–
[2H]C([2H])([2H])C(=O)NC[C@]12CCC(C)(C)C[C@H]1[C@H]1C(=O)C=C3[C@@]4(C)C=C(C#N)C(=O)C(C)(C)[C@@H]4CC[C@@]3(C)[C@]1(C)CC2 [Compound T52],0.28 ± 0.13^e fold,0.52 ± 0.24,0.3^e fold,0.003,–,–,–,–
CCC(=O)NC[C@]12CCC(C)(C)C[C@H]1[C@H]1C(=O)C=C3[C@@]4(C)C=C(C#N)C(=O)C(C)(C)[C@@H]4CC[C@@]3(C)[C@]1(C)CC2 [Compound T53],0.21 fold and 0.21 ± 0.05^e fold,0.38,0.2^e fold,0.0024,–,more than 19 times,–,–
CC1(C)CC[C@]2(NNC(=O)C(F)(F)F)CC[C@]3(C)[C@H](C(=O)C=C4[C@@]5(C)C=C(C#N)C(=O)C(C)(C)[C@@H]5CC[C@]43C)[C@@H]2C1 [Compound T56],1.70 ± 0.32^d fold,7.04 ± 1.91,1.5^e fold,0.0155,–,–,–,–
CC1(C)CC[C@]2(N3CCC(=O)N3)CC[C@]3(C)[C@H](C(=O)C=C4[C@@]5(C)C=C(C#N)C(=O)C(C)(C)[C@@H]5CC[C@]43C)[C@@H]2C1 [Compound T58],2.97 ± 0.65^d fold,12.2 ± 3.32,5.3^e fold,0.0565,–,–,–,–
CC1(C)CC[C@]2(CNC(=O)C(C)(F)F)CC[C@]3(C)[C@H](C(=O)C=C4[C@@]5(C)C=C(C#N)C(=O)C(C)(C)[C@@H]5CC[C@]43C)[C@@H]2C1 [Compound T62],0.51 ± 0.18^d fold,2.12 ± 0.85,0.3^e fold,0.0035,–,–,–,–
CC1(C)CC[C@]2(CNC(=O)C(F)F)CC[C@]3(C)[C@H](C(=O)C=C4[C@@]5(C)C=C(C#N)C(=O)C(C)(C)[C@@H]5CC[C@]43C)[C@@H]2C1 [Compound T63],0.36 ± 0.11^d fold,1.48 ± 0.54,0.4^e fold,0.004,–,–,–,–
C[C@@H]1C(=O)C(C#N)=C[C@]2(C)C3=CC(=O)[C@@H]4[C@@H]5CC(C)(C)CC[C@]5(CN5CCC5=O)CC[C@@]4(C)[C@]3(C)CC[C@@H]12 [Compound T65],0.36 ± 0.12^e fold,0.42 ± 0.13,0.4^e fold,0.0047,–,–,–,–
C[C@@H]1C(=O)C(C#N)=C[C@]2(C)C3=CC(=O)[C@@H]4[C@@H]5CC(C)(C)CC[C@]5(CN5CCCC5=O)CC[C@@]4(C)[C@]3(C)CC[C@@H]12 [Compound T66],0.39 ± 0.09^e fold,0.45 ± 0.09,0.4^e fold,0.0046,–,–,–,–
CC1(C)CC[C@]2(CNC(=O)CF)CC[C@]3(C)[C@H](C(=O)C=C4[C@@]5(C)C=C(C#N)C(=O)C(C)(C)[C@@H]5CC[C@]43C)[C@@H]2C1 [Compound T67],0.38 ± 0.15^d fold,–,0.3^e fold,–,–,–,0.51 ± 0.31,0.0033
